Data reported in ChEMBL document CHEMBL3217475, “INPHARMA-based identification of ligand binding site in fragment-based drug design” (Medchemcomm, 2012).

Assay: Inhibition of glycogen phosphorylase (unknown origin) by INPHARMA method
Design: species or system Homo sapiens

Row | IC50 | SMILES
1 | 1 µM | CN1CC[C@H](c2c(O)cc(O)c3c(=O)cc(-c4ccccc4Cl)oc23)[C@H](O)C1 [ALVOCIDIB]
2 | 100 µM | Cn1c(=O)c2c(ncn2C)n(C)c1=O [CAFFEINE]
